Measured values: US20100063047A1 (KALYPSYS, INC., priority 2008, published 2010)

Molecular target: T1, human H1 (Homo sapiens, UniProt P35367)
T1 construct: host or cells: CHO-K1, also expressing mitochondrion-targeted aequorin
Test: In vitro histamine H1 receptor cell-based aequorin bioluminescence antagonist assay
Details: CHO-K1 cells expressing human H1 and aequorin; histamine at EC80; read-out: H1 Antagonist EC50
Protocol: In vitro Histamine Receptor Cell-Based Assays
The cell-based assays utilize an aequorin dependent bioluminescence signal. Doubly-transfected, stable CHO—K1 cell lines expressing human H1 or H4, mitochondrion-targeted aequorin, and (H4 only) human G protein Gα16 are obtained from Perkin-Elmer. Cells are maintained in F12 (Ham's) growth medium, containing 10% (vol./vol.) fetal bovine serum, penicillin (100 IU/mL), streptomycin (0.1 mg/mL), zeocin (0.25 mg/mL) and geneticin (0.40 mg/mL). Cell media components are from Invitrogen, Inc. One day prior to assay, the growth medium is replaced with the same, excluding zeocin and geneticin.
For assay preparation, growth medium is aspirated, and cells are rinsed with calcium-free, magnesium-free phosphate-buffered saline, followed by two to three minute incubation in Versene (Invitrogen, Inc.) at 37° C. Assay medium (DMEM:F12 [50:50], phenol-red free, containing 1 mg/mL protease-free bovine serum albumin) is added to collect the released cells, which are then centrifuged. The cell pellet is re-suspended in assay medium, centrifuged once more, and re-suspended in assay medium to a final density of 5×10^6 cells/mL. Coelenterazine-h dye (500 μM in ethanol) is added to a final concentration of 5 μM, and mixed immediately. The conical tube containing the cells is then wrapped with foil to protect the light-sensitive dye. The cells are incubated for four hours further at room temperature (approximately 21° C.) with end-over-end rotation to keep them in suspension.
Just before assay, the dye-loaded cells are diluted to 0.75×10^6 cells/mL (H1 receptor) or 1.5×10^6 cells/mL (H4 receptor) with additional assay medium. Cells are dispensed to 1536 well micro-titer plates at 3 μL/well. To assay receptor antagonism, 60 nl of 100× concentration test compounds in 100% dimethyl sulfoxide (DMSO) are dispensed to the wells, one compound per well, by passive pin transfer, and the plates are incubated for 15 minutes at room temperature. […] The pipette dispenses 3 μL/well of agonist (histamine, at twice the final concentration, where final concentration is a previously determined EC80) in assay medium, with concurrent bioluminescence detection. Agonist activity of test compounds is excluded by separate assays that measure response to test compounds immediately, without added histamine agonist.
CCD image capture on the Lumilux includes a 5 second baseline read prior to agonist addition, and generally a 40 second read per plate after agonist addition. A decrease in bioluminescence signal (measured either as area-under-the-curve, or maximum signal amplitude minus minimum signal amplitude) correlates with receptor antagonism in a dose dependent manner. The negative control is DMSO lacking any test compound. For antagonist assays, the positive controls are diphenhydramine (2-Diphenylmethoxy-N,N-dimethylethylamine, 10 μM final concentration, H1 receptor) or JNJ7777120 (1-[(5-Chloro-1H-indol-2-yl)carbonyl]-4-methyl-piperazine, 10 μM final concentration, H4 receptor). Efficacy is measured as a percentage of positive control activity.

T1 sequence (P35367 whole entry): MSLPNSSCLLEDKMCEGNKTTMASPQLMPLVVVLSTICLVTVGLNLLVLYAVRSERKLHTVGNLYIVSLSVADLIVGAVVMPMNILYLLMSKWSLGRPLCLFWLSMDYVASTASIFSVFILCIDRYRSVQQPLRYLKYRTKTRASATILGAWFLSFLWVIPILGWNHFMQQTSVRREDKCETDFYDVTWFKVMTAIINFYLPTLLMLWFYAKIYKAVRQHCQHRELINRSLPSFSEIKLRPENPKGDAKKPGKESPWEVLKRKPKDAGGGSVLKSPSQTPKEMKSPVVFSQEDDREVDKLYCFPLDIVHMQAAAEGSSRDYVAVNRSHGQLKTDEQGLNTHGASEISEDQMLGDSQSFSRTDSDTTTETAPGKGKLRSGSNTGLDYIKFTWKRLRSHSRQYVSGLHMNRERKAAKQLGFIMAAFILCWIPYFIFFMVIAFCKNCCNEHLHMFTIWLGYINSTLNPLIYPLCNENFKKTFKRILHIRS

Row | Compound | EC50 [µM]
1 | Cc1cccc(N2CCN(c3ncnc4scc(C)c34)CC2C)c1 (stereo not shown) [Example 255, 2-methyl-1-(3-methylphenyl)-4-{5-methylthieno[2,3-d]pyrimidin-4-yl}piperazine] | > 10
2 | Cc1csc2ncnc(N3CCN(c4ccc([N+](=O)[O-])cc4)CC3)c12 [Example 273, 1-{5-methylthieno[2,3-d]pyrimidin-4-yl}-4-(4-nitrophenyl)piperazine] | > 10
3 | Cc1csc2ncnc(N3CCN(c4ccc(Cl)cc4)CC3)c12 [Example 6, 4-(4-(4-chlorophenyl)piperazin-1-yl)-5-methylthieno[2,3-d]pyrimidine] | > 10
4 | Cc1csc2ncnc(NCCC(C)C)c12 [Example 69, 5-methyl-N-(3-methylbutyl)thieno[2,3-d]pyrimidin-4-amine] | > 10
5 | Cc1csc2ncnc(NCCc3cccc(F)c3)c12 [Example 18] | > 10
6 | CCOC(=O)N1CCC(Nc2ncnc3scc(C)c23)CC1 [Example 162, ethyl 4-({5-methylthieno[2,3-d]pyrimidin-4-yl}amino)piperidine-1-carboxylate] | > 10
7 | Cc1csc2ncnc(NCCc3ccccc3F)c12 [Example 127, N-[2-(2-fluorophenyl)ethyl]-5-methylthieno[2,3-d]pyrimidin-4-amine] | > 10
8 | CC(C)(CNc1ncnc2sccc12)N1CCOCC1 [Example 308, N-(2-methyl-2-morpholinopropyl)thieno[2,3-d]pyrimidin-4-amine] | > 10
9 | Cc1csc2ncnc(NCc3ccc(Cl)cc3Cl)c12 [Example 167, N-[(2,4-dichlorophenyl)methyl]-5-methylthieno[2,3-d]pyrimidin-4-amine] | > 10
10 | Cc1csc2ncnc(NCCC(c3ccccc3)c3ccccc3)c12 [Example 176, N-(3,3-diphenylpropyl)-5-methylthieno[2,3-d]pyrimidin-4-amine] | > 10
11 | Cc1csc2ncnc(OCCc3ccc(Cl)cc3)c12 [Example 26, 4-(4-chlorophenethoxy)-5-methylthieno[2,3-d]pyrimidine] | > 10
12 | Cc1csc2ncnc(N[C@@H](C)c3ccccc3)c12 [Example 96, 5-methyl-N-[(1S)-1-phenylethyl]thieno[2,3-d]pyrimidin-4-amine] | > 10
13 | Cc1csc2ncnc(NCCc3ccc(O)cc3)c12 [Example 121, 4-[2-({5-methylthieno[2,3-d]pyrimidin-4-yl}amino)ethyl]phenol] | > 10
14 | COc1ccc(CCNc2nc(C)nc3sc(C)c(C)c23)cc1OC [Example 296, N-(3,4-dimethoxyphenethyl)-2,5,6-trimethylthieno[2,3-d]pyrimidin-4-amine] | > 10
15 | Cc1csc2ncnc(NCCc3ccc(S(N)(=O)=O)cc3)c12 [Example 173, 4-[2-({5-methylthieno[2,3-d]pyrimidin-4-yl}amino)ethyl]benzene-1-sulfonamide] | > 10
16 | Cc1csc2ncnc(N3CCCCC3C)c12 (stereo not shown) [Example 190, 2-methyl-1-{5-methylthieno[2,3-d]pyrimidin-4-yl}piperidine] | > 10
17 | Cc1csc2ncnc(NCCc3ccc(Cl)cc3)c12 [Example 46, N-[2-(4-chlorophenyl)ethyl]-5-methylthieno[2,3-d]pyrimidin-4-amine] | > 10
18 | Cc1csc2ncnc(NC(C)C(C)C)c12 (stereo not shown) [Example 68, 5-methyl-N-(3-methylbutan-2-yl)thieno[2,3-d]pyrimidin-4-amine] | > 10
19 | Cc1ccc(CCNc2ncnc3scc(C)c23)cc1 [Example 19] | > 10
20 | c1ccc(CC2CCN(c3ncnc4sccc34)CC2)cc1 [Example 302, 4-(4-benzylpiperidin-1-yl)thieno[2,3-d]pyrimidine] | > 10
21 | Cc1ccc([C@H](C)Nc2ncnc3scc(C)c23)cc1 [Example 114, 5-methyl-N-[(1S)-1-(4-methylphenyl)ethyl]thieno[2,3-d]pyrimidin-4-amine] | > 10
22 | Cc1ccccc1CNc1ncnc2scc(C)c12 [Example 99, 5-methyl-N-[(2-methylphenyl)methyl]thieno[2,3-d]pyrimidin-4-amine] | > 10

Row | Compound | EC50 [µM]
23 | Cc1csc2ncnc(NC3CCCCCC3)c12 [Example 90, N-cycloheptyl-5-methylthieno[2,3-d]pyrimidin-4-amine] | > 10
24 | CCOc1ccccc1CNc1ncnc2scc(C)c12 [Example 146, N-[(2-ethoxyphenyl)methyl]-5-methylthieno[2,3-d]pyrimidin-4-amine] | > 10
25 | Cc1csc2ncnc(NCc3cccs3)c12 [Example 87, 5-methyl-N-(thiophen-2-ylmethyl)thieno[2,3-d]pyrimidin-4-amine] | > 10
26 | CCC(CO)Nc1ncnc2scc(C)c12 (stereo not shown) [Example 72, 2-({5-methylthieno[2,3-d]pyrimidin-4-yl}amino)butan-1-ol] | > 10
27 | Cc1csc2ncnc(NCc3ccccc3F)c12 [Example 104, N-[(2-fluorophenyl)methyl]-5-methylthieno[2,3-d]pyrimidin-4-amine] | > 10
28 | Cc1csc2ncnc(NCCNC(=O)OC(C)(C)C)c12 [Example 154, tert-butyl N-[2-({5-methylthieno[2,3-d]pyrimidin-4-yl}amino)ethyl]carbamate] | > 10
29 | Cc1csc2ncnc(N[C@H](CO)Cc3ccccc3)c12 [Example 143, (2S)-2-({5-methylthieno[2,3-d]pyrimidin-4-yl}amino)-3-phenylpropan-1-ol] | > 10
30 | Cc1sc2ncnc(NCCc3ccc(S(N)(=O)=O)cc3)c2c1C [Example 301, 4-(2-(5,6-dimethylthieno[2,3-d]pyrimidin-4-ylamino)ethyl)benzenesulfonamide] | > 10
31 | Cc1csc2ncnc(N3CCN(CC4CCCCC4)CC3)c12 [Example 247, 1-(cyclohexylmethyl)-4-{5-methylthieno[2,3-d]pyrimidin-4-yl}piperazine] | > 10
32 | Cc1csc2ncnc(NCCOc3ccccc3)c12 [Example 122, 5-methyl-N-(2-phenoxyethyl)thieno[2,3-d]pyrimidin-4-amine] | > 10
33 | Cc1csc2nccc(NCCc3ccc(Cl)cc3)c12 [Example 36, N-(4-chlorophenethyl)-3-methylthieno[2,3-b]pyridin-4-amine] | > 10
34 | Cc1csc2ncnc(N3CCN(C)CC3)c12 [Example 192, 1-methyl-4-{5-methylthieno[2,3-d]pyrimidin-4-yl}piperazine] | > 10
35 | Cc1csc2ncnc(NCc3cccc(Cl)c3)c12 [Example 129, N-[(3-chlorophenyl)methyl]-5-methylthieno[2,3-d]pyrimidin-4-amine] | > 10
36 | Cc1csc2ncnc(N(CCc3ccccc3)Cc3ccccc3)c12 [Example 277, N-benzyl-5-methyl-N-(2-phenylethyl)thieno[2,3-d]pyrimidin-4-amine] | > 10
37 | CC(=O)c1ccc(N2CCN(c3ncnc4scc(C)c34)CC2)cc1 [Example 271, 1-[4-(4-{5-methylthieno[2,3-d]pyrimidin-4-yl}piperazin-1-yl)phenyl]ethan-1-one] | > 10
38 | CCOC(=O)C1CCN(c2ncnc3scc(C)c23)CC1 [Example 44, ethyl 1-{5-methylthieno[2,3-d]pyrimidin-4-yl}piperidine-4-carboxylate] | > 10
39 | COc1cccc(CNc2ncnc3scc(C)c23)c1 [Example 125, N-[(3-methoxyphenyl)methyl]-5-methylthieno[2,3-d]pyrimidin-4-amine] | > 10
40 | Cc1csc2ncnc(NCCCN3CCOCC3)c12 [Example 136, 5-methyl-N-[3-(morpholin-4-yl)propyl]thieno[2,3-d]pyrimidin-4-amine] | > 10
41 | Cc1csc2ncnc(NCc3ccc(F)cc3)c12 [Example 103, N-[(4-fluorophenyl)methyl]-5-methylthieno[2,3-d]pyrimidin-4-amine] | > 10
42 | Cc1csc2ncnc(N3CCC(NC(=O)OC(C)(C)C)C3)c12 (stereo not shown) [Example 251, tert-butyl N-(1-{5-methylthieno[2,3-d]pyrimidin-4-yl}pyrrolidin-3-yl)carbamate] | > 10
43 | Cc1csc2ncnc(NCc3ccco3)c12 [Example 75, N-(furan-2-ylmethyl)-5-methylthieno[2,3-d]pyrimidin-4-amine] | > 10
